Legend:
[1] = system: leukotriene pathway in human whole blood (LTB4 levels); test: Human whole blood assay (LTB4); type: cell-based; details: human whole blood diluted 1:1 in RPMI, stimulated with calcium ionophore A23187; single replicate
Protocol: (§1) The ability of the compounds of the present invention to treat a FLAP-mediated disease and/or disorder, or associated symptoms or complications thereof, was determined using the following procedures. Binding assay data represent the average value obtained from two different assay plates, with samples run in duplicate on each plate. Human whole blood assay data represent a single replicate on an assay plate using whole blood from at least one healthy donor.
An in vitro cellular assay was performed using human whole blood collected in heparin-containing tubes, which was used to test the ability of compounds to modulate the leukotriene pathway in human whole blood. The blood was diluted 1:1 in RPMI medium, pre-incubated for 15 min at 37° Celsius with test compounds at various concentrations, and then stimulated with calcium ionophore, A23187 (7 μg/mL), for 30 min at 37° Celsius. The samples were then centrifuged and plasma was removed. The plasma was diluted in assay buffer and LTB4 levels were measured using a commercial kit (Enzo Life Sciences). The concentration of each compound that was required for half-maximal inhibition (modulation) of recombinant enzyme activity (IC50) was calculated by a 4-parameter equation using the program GraphPad Prism (GraphPad software).

human FLAP = human FLAP (Homo sapiens (Human), UniProt P20292); test: FLAP binding assay (HTRF); details: human FLAP-containing membranes, HTRF format; average of two assay plates, duplicates; read-out: FLAP Binding wild type HTRF Ki
human FLAP, sequence (P20292 whole entry): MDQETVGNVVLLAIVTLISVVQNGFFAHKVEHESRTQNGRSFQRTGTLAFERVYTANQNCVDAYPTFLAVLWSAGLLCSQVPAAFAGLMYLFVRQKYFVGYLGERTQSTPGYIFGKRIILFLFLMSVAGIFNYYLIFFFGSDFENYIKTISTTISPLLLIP
Protocol: as §1
Data are expressed as a HTRF ratio.

IC50 [1] | Ki (human FLAP) | Compound
418 nM | 5.3 nM | NC(=O)c1cccc(COc2c(C3CCC3)ccc(-c3cnc4c(c3)OCCN4)c2F)c1 [Example 192, 3-{[6-Cyclobutyl-3-(3,4-dihydro-2H-pyrido[3,2-b][1,4]oxazin-7-yl)-2-fluorophenoxy]-methyl}-benzamide]
104 nM | 23.6 nM | CC(C)(C)c1cc(Oc2c(C3CCC3)ccc(-c3cnc(N)cn3)c2F)nc(N)n1 [Example 240, 4-(3-(5-aminopyrazin-2-yl)-6-cyclobutyl-2-fluorophenoxy)-6-(tert-butyl)pyrimidin-2-amine]
1140 nM | 1140 nM | Nc1cnc(-c2ccc(C3CCC3)c(OCC(O)CN3CCOCC3)c2F)cn1 (racemic) [Example 255, 1-(3-(5-aminopyrazin-2-yl)-6-cyclobutyl-2-fluorophenoxy)-3-morpholinopropan-2-ol]
160 nM |  | COC(=O)c1ccc2oc(COc3c(C4CCC4)ccc(-c4cnc(N)cn4)c3F)nc2c1 [Example 274, Methyl 2-{[3-(5-aminopyrazin-2-yl)-6-cyclobutyl-2-fluorophenoxy]methyl}-1,3-benzoxazole-5-carboxylate]
52.2 nM | 2.4 nM | N#Cc1cccnc1Oc1c(C2CCC2)ccc(-c2cnc(N)cn2)c1F [Example 110, 2-[3-(5-Aminopyrazin-2-yl)-6-cyclobutyl-2-fluorophenoxy]pyridine-3-carbonitrile]
1540 nM | 327 nM | Nc1cnc(-c2ccc(C3CCC3)c(OCC(O)CNc3cc(N)ncn3)c2F)cn1 (racemic) [Example 59, racemic 1-(3-(5-Aminopyrazin-2-yl)-6-cyclobutyl-2-fluorophenoxy)-3-((6-aminopyrimidin-4-yl)amino)propan-2-ol]
22.3 nM | 1.1 nM | Nc1cnc(-c2ccc(C3CCC3)c(Oc3ccnc(-c4ccccc4)n3)c2F)cn1 [Example 144, 5-{4-Cyclobutyl-2-fluoro-3-[(2-phenylpyrimidin-4-yl)oxy]phenyl}pyrazin-2-amine]
> 1000 nM |  | Nc1cnc(-c2ccc(C3CCC3)c(Oc3nc4ncccc4s3)c2F)cn1 [Example 330, 5-(4-Cyclobutyl-2-fluoro-3-(thiazolo[4,5-b]pyridin-2-yloxy)phenyl)pyrazin-2-amine]
1220 nM |  | CS(=O)(=O)c1cccc(COc2c(C3CCC3)ccc(-c3cnc(N)cn3)c2F)c1 [Example 6, 5-(4-Cyclobutyl-2-fluoro-3-{[3-(methylsulfonyl)benzyl]oxy}phenyl)-pyrazin-2-amine]
12.4 nM |  | CC(C)c1nccc(Oc2c(C3CCC3)ccc(-c3cnc(N)cn3)c2F)n1 [Example 135, 5-(4-Cyclobutyl-2-fluoro-3-{[2-(1-methylethyl)pyrimidin-4-yl]oxy}phenyl)pyrazin-2-amine]
175 nM |  | Nc1cnc(-c2ccc(C3CCC3)c(OCc3nc(C4CC4)no3)c2F)cn1 [Example 48, 5-{4-Cyclobutyl-3-[(3-cyclopropyl-1,2,4-oxadiazol-5-yl)methoxy]-2-fluorophenyl}pyrazin-2-amine]
480 nM |  | COc1cc(Oc2c(C3CCC3)ccc(-c3cnc4[nH]ccc4c3)c2F)ncn1 [Example 228, 5-(4-cyclobutyl-2-fluoro-3-((6-methoxypyrimidin-4-yl)oxy)phenyl)-1H-pyrrolo[2,3-b]pyridine]
80.5 nM |  | CC(C)(C)c1ccc(-c2cnc(N)cn2)c(F)c1Oc1cc(N)ncn1 [Example 202, 6-[3-(5-Aminopyrazin-2-yl)-6-tert-butyl-2-fluorophenoxy]pyrimidin-4-amine]
503 nM |  | CS(=O)(=O)c1ccc(Oc2c(C3CCC3)ccc(-c3cnc(N)cn3)c2F)cc1 [Example 116, 5-{4-Cyclobutyl-2-fluoro-3-[4-(methylsulfonyl)phenoxy]phenyl}pyrazin-2-amine]
1020 nM |  | CCOC(=O)c1ccc(COc2c(C3CCC3)ccc(-c3cnc(N)cn3)c2F)o1 [Example 73, Ethyl 5-{[3-(5-aminopyrazin-2-yl)-6-cyclobutyl-2-fluorophenoxy]methyl}furan-2-carboxylate]
1380 nM |  | Nc1cnc(-c2ccc(C3CCC3)c(OCc3cc(S(F)(F)(F)(F)F)ccc3F)c2F)cn1 [Example 77, 5-(4-Cyclobutyl-2-fluoro-3-{[2-fluoro-5-(pentafluoro-lambda~6~- sulfanyl)benzyl]oxy}phenyl)pyrazin-2-amine]
6660 nM |  | N#Cc1ccnc(Oc2c(C3CCC3)ccc(-c3cnc(N)cn3)c2F)n1 [Example 92, 2-[3-(5-Aminopyrazin-2-yl)-6-cyclobutyl-2-fluorophenoxy]pyrimidine-4-carbonitrile]
1960 nM |  | COC(=O)c1ccc(O)c(NC(=O)COc2c(C3CCC3)ccc(-c3cnc(N)cn3)c2F)c1 [Example 275, Methyl 3-({[3-(5-aminopyrazin-2-yl)-6-cyclobutyl-2-fluorophenoxy]acetyl}amino)-4-hydroxybenzoate]

IC50 [1] | Ki (human FLAP) | Compound
107 nM |  | N#Cc1cnn(CC(O)COc2c(C3CCC3)ccc(-c3cnc(N)cn3)c2F)c1N (racemic) [Example 65, racemic 5-Amino-1-(3-(3-(5-aminopyrazin-2-yl)-6-cyclobutyl-2-fluorophenoxy)-2-hydroxypropyl)-1H-pyrazole-4-carbonitrile]
2370 nM |  | COc1c(C2CCC2)ccc(-c2cnc3c(c2)CCN3)c1F [Example 198, 5-(4-cyclobutyl-2-fluoro-3-methoxyphenyl)-2,3-dihydro-1H-pyrrolo[2,3-b]pyridine]
732 nM |  | Nc1cnc(-c2ccc(C3CCC3)c(OCC(O)Cn3cccn3)c2F)cn1 (racemic) [Example 60, racemic 1-(3-(5-Aminopyrazin-2-yl)-6-cyclobutyl-2-fluorophenoxy)-3-(1H-pyrazol-1-yl)propan-2-ol]
413 nM |  | Cc1nc(COc2c(C3CCC3)ccc(-c3cnc(N)cn3)c2F)no1 [Example 70, 5-{4-Cyclobutyl-2-fluoro-3-[(5-methyl-1,2,4-oxadiazol-3-yl)methoxy]phenyl}pyrazin-2-amine]
85.3 nM |  | Nc1cnc(-c2ccc(C3CCC3)c(Oc3cnc4cc(F)c(F)cc4n3)c2F)cn1 [Example 271, 5-{4-Cyclobutyl-3-[(6,7-difluoroquinoxalin-2-yl)oxy]-2-fluorophenyl}pyrazin-2-amine]
3480 nM |  | N#Cc1nc(-c2ccc(C3CCC3)c(O)c2F)cnc1N [Example 222, 3-amino-6-(4-cyclobutyl-2-fluoro-3-hydroxyphenyl)pyrazine-2-carbonitrile]
736 nM |  | Nc1cnc(-c2ccc(C3CCC3)c(OCc3cc(Cl)ccc3Cl)c2F)cn1 [Example 38, 5-{4-Cyclobutyl-3-[(2,5-dichlorobenzyl)oxy]-2-fluorophenyl}pyrazin-2-amine]
727 nM |  | Nc1cnc(-c2ccc(C3CCC3)c(OCC(O)CNc3ccn[nH]3)c2F)cn1 (racemic) [Example 67, racemic 1-((1H-Pyrazol-5-yl)amino)-3-(3-(5-aminopyrazin-2-yl)-6-cyclobutyl-2-fluorophenoxy)propan-2-ol]
170 nM |  | NC(=O)c1ccc(Oc2c(C3CCC3)ccc(-c3cnc(N)cn3)c2F)cc1 [Example 155, 4-[3-(5-Aminopyrazin-2-yl)-6-cyclobutyl-2-fluorophenoxy]benzamide]
1410 nM |  | Nc1cnc(-c2ccc(C3CCC3)c(OCc3ccc(F)c(F)c3)c2F)cn1 [Example 33, 5-{4-Cyclobutyl-3-[(3,4-difluorobenzyl)oxy]-2-fluorophenyl}pyrazin-2-amine]
771 nM |  | 2-[3-(Benzyloxy)-4-cyclobutyl-2- fluorophenyl]-5H-pyrrolo[2,3-b]pyrazine [Example 177]
53.8 nM |  | CC(C)c1ccnc(Oc2c(C3CCC3)ccc(-c3cnc(N)cn3)c2F)n1 [Example 90, 5-(4-Cyclobutyl-2-fluoro-3-{[4-(1-methylethyl)pyrimidin-2-yl]oxy}phenyl)pyrazin-2-amine]
375 nM |  | N#Cc1ccc(Oc2c(C3CCC3)ccc(-c3cnc(N)cn3)c2F)nc1 [Example 114, 6-[3-(5-Aminopyrazin-2-yl)-6-cyclobutyl-2-fluorophenoxy]pyridine-3-carbonitrile]
167 nM |  | Nc1cnc(-c2ccc(C3CCCCC3)c(Oc3ncccn3)c2F)cn1 [Example 320, 5-(4-Cyclohexyl-2-fluoro-3-(pyrimidin-2-yloxy)phenyl)pyrazin-2-amine]
644 nM |  | Nc1cnc(-c2ccc(C3CCC3)c(OCC(O)CNc3ncccn3)c2F)cn1 (racemic) [Example 56, racemic 1-(3-(5-Aminopyrazin-2-yl)-6-cyclobutyl-2-fluorophenoxy)-3-(pyrimidin-2-ylamino)propan-2-ol]
10000 nM |  | Nc1cnc(-c2ccc(C3CCC3)c(OCc3ccc(C(=O)O)o3)c2F)cn1 [Example 85, 5-{[3-(5-Aminopyrazin-2-yl)-6-cyclobutyl-2-fluorophenoxy]methyl}furan-2-carboxylic acid]
1150 nM |  | CC(C)(C)OC(=O)COc1c(C2CCC2)ccc(-c2cnc(N)cn2)c1F [Example 49, tert-Butyl [3-(5-aminopyrazin-2-yl)-6-cyclobutyl-2-fluorophenoxy]acetate]
417 nM |  | CC(C)(C)OC(=O)N1CCC(COc2c(C3CCC3)ccc(-c3cnc(N)cn3)c2F)C1 (stereo not drawn) [Example 247, tert-butyl 3-((3-(5-aminopyrazin-2-yl)-6-cyclobutyl-2-fluoro-phenoxy)methyl)pyrrolidine-1-carboxylate]

— patent publication US9073876B2, “Flap modulators” (JANSSEN PHARMACEUTICA NV, priority 2013, dated 2015)
